Data taken from publication PMC5218480 (PLoS ONE, 2017).

Tested on: MV-4-11 cells
Test: Gene expression microarray analysis (Affymetrix PrimeView) and GSEA
Type: cell-based, human
Set-up: RFU PODN (11730768_x_at) / Fold change /veh PODN (11730768_x_at) / RFU LINC00158 (11744669_a_at) / Fold change /veh LINC00158 (11744669_a_at) / RFU DUSP10 (11751237_a_at) / Fold change /veh DUSP10 (11751237_a_at) / RFU ID3 (11757404_x_at) / Fold change /veh ID3 (11757404_x_at) / RFU PLEKHG5 (11737974_s_at) / Fold change /veh PLEKHG5 (11737974_s_at) / RFU LRRC4B (11730491_at) / Fold change /veh LRRC4B (11730491_at) / RFU GIMAP4 (11747438_a_at) / Fold change /veh GIMAP4 (11747438_a_at) / RFU KRT8 (11758183_x_at) / Fold change /veh KRT8 (11758183_x_at) / RFU CNN1 (11734310_a_at) / Fold change /veh CNN1 (11734310_a_at) / RFU VPS37D (11726825_at) / Fold change /veh VPS37D (11726825_at) / RFU C10orf10 (11716522_x_at) / Fold change /veh C10orf10 (11716522_x_at) / RFU KIR2DL2 /// KIR2DL4 /// KIR2DL5A /// KIR2DL5B /// KIR2DS1 /// KIR2DS2 /// KIR2DS3 /// KIR2DS4 /// KIR3DL3 /// KIR3DL3 /// KIR3DS1 (11738374_at) / Fold change /veh KIR2DL2 /// KIR2DL4 /// KIR2DL5A /// KIR2DL5B /// KIR2DS1 /// KIR2DS2 /// KIR2DS3 /// KIR2DS4 /// KIR3DL3 /// KIR3DL3 /// KIR3DS1 (11738374_at) / RFU C1QL1 (11718748_at) / Fold change /veh C1QL1 (11718748_at) / RFU TMPRSS4 (11747572_a_at) / Fold change /veh TMPRSS4 (11747572_a_at) / RFU HAMP (11756126_x_at) / Fold change /veh HAMP (11756126_x_at) / RFU RNFT2 (11725882_a_at) / Fold change /veh RNFT2 (11725882_a_at) / RFU NR4A2 (11747474_a_at) / Fold change /veh NR4A2 (11747474_a_at) / RFU ABCC12 (11746883_a_at) / Fold change /veh ABCC12 (11746883_a_at) / RFU TMEM136 (11760407_x_at) / Fold change /veh TMEM136 (11760407_x_at) / RFU CLDN22 /// WWC2 (11732394_at) / Fold change /veh CLDN22 /// WWC2 (11732394_at) / RFU HLA-DPB1 (11760878_x_at) / Fold change /veh HLA-DPB1 (11760878_x_at) / RFU SPINT1 (11716480_a_at) / Fold change /veh SPINT1 (11716480_a_at) / RFU GAP43 (11754022_s_at) / Fold change /veh GAP43 (11754022_s_at) / RFU A4GNT (11735810_at) / Fold change /veh A4GNT (11735810_at) / RFU PRB3 (11715151_x_at) / Fold change /veh PRB3 (11715151_x_at) / RFU TUBB4B (11761932_at) / Fold change /veh TUBB4B (11761932_at) / RFU CAPN14 (11732068_a_at) / Fold change /veh CAPN14 (11732068_a_at) / RFU TMCC2 (11721928_a_at) / Fold change /veh TMCC2 (11721928_a_at) / RFU IRGQ (11745062_a_at) / Fold change /veh IRGQ (11745062_a_at) / RFU FAM174B (11720279_a_at) / Fold change /veh FAM174B (11720279_a_at) / RFU TMPRSS4 (11748680_a_at) / Fold change /veh TMPRSS4 (11748680_a_at) / RFU FAM212B (11763350_a_at) / Fold change /veh FAM212B (11763350_a_at) / RFU PLEKHG5 (11743358_a_at) / Fold change /veh PLEKHG5 (11743358_a_at) / RFU ZSCAN30 (11745921_a_at) / Fold change /veh ZSCAN30 (11745921_a_at) / RFU CMKLR1 (11741424_a_at) / Fold change /veh CMKLR1 (11741424_a_at) / RFU LOC101060620 /// MAPK8IP1 (11723275_at) / Fold change /veh LOC101060620 /// MAPK8IP1 (11723275_at) / RFU SPTSSB (11747773_x_at) / Fold change /veh SPTSSB (11747773_x_at) / RFU PRSS12 (11739890_at) / Fold change /veh PRSS12 (11739890_at) / RFU BIN1 (11741810_x_at) / Fold change /veh BIN1 (11741810_x_at) / RFU WNT11 (11732464_a_at) / Fold change /veh WNT11 (11732464_a_at) / RFU C10orf10 (11716521_a_at) / Fold change /veh C10orf10 (11716521_a_at) / RFU C5orf56 (11738089_at) / Fold change /veh C5orf56 (11738089_at) / RFU CYB561 (11721691_x_at) / Fold change /veh CYB561 (11721691_x_at) / RFU ANKRD19P (11752326_a_at) / Fold change /veh ANKRD19P (11752326_a_at) / RFU OR2T12 /// OR2T33 /// OR2T8 (11738714_s_at) / Fold change /veh OR2T12 /// OR2T33 /// OR2T8 (11738714_s_at) / RFU VCAN (11748164_a_at) / Fold change /veh VCAN (11748164_a_at) / RFU JSRP1 (11732532_at) / Fold change /veh JSRP1 (11732532_at) / RFU KRTAP10-11 (11738290_x_at) / Fold change /veh KRTAP10-11 (11738290_x_at) / RFU MYO3A (11730013_a_at) / Fold change /veh MYO3A (11730013_a_at) / RFU EBF3 (11725865_a_at) / Fold change /veh EBF3 (11725865_a_at) / RFU CAMK2N1 (11719241_x_at) / Fold change /veh CAMK2N1 (11719241_x_at) / RFU C5orf56 (11738088_a_at) / Fold change /veh C5orf56 (11738088_a_at) / RFU OLFML3 (11715873_a_at) / Fold change /veh OLFML3 (11715873_a_at) / RFU LOC100653217 /// NTM (11731650_a_at) / Fold change /veh LOC100653217 /// NTM (11731650_a_at) / RFU MAPK11 (11762145_a_at) / Fold change /veh MAPK11 (11762145_a_at) / RFU FIZ1 (11724087_x_at) / Fold change /veh FIZ1 (11724087_x_at) / RFU OASL (11726364_x_at) / Fold change /veh OASL (11726364_x_at) / RFU SOX15 (11748057_x_at) / Fold change /veh SOX15 (11748057_x_at) / RFU CD79A (11719716_a_at) / Fold change /veh CD79A (11719716_a_at) / RFU HIST1H1D (11736915_at) / Fold change /veh HIST1H1D (11736915_at) / RFU CASKIN2 (11723855_a_at) / Fold change /veh CASKIN2 (11723855_a_at) / RFU LOC730098 (11760151_x_at) / Fold change /veh LOC730098 (11760151_x_at) / RFU OR4N2 (11742367_at) / Fold change /veh OR4N2 (11742367_at) / RFU PRRT2 (11749266_a_at) / Fold change /veh PRRT2 (11749266_a_at) / RFU SNX32 (11753110_a_at) / Fold change /veh SNX32 (11753110_a_at) / RFU CDHR5 (11726645_a_at) / Fold change /veh CDHR5 (11726645_a_at) / RFU RCAN1 (11760418_a_at) / Fold change /veh RCAN1 (11760418_a_at) / RFU FAM167A (11723789_a_at) / Fold change /veh FAM167A (11723789_a_at) / RFU FAM26E (11764081_at) / Fold change /veh FAM26E (11764081_at) / RFU ISYNA1 (11749810_s_at) / Fold change /veh ISYNA1 (11749810_s_at) / RFU ACY1 (11761880_at) / Fold change /veh ACY1 (11761880_at) / RFU 11764098_at / Fold change /veh 11764098_at / RFU SAMD14 (11745864_x_at) / Fold change /veh SAMD14 (11745864_x_at) / RFU NPB (11741838_a_at) / Fold change /veh NPB (11741838_a_at) / RFU TMPRSS6 (11731388_a_at) / Fold change /veh TMPRSS6 (11731388_a_at) / RFU KRTAP10-2 (11738614_at) / Fold change /veh KRTAP10-2 (11738614_at) / RFU ARHGAP8 /// PRR5-ARHGAP8 (11727945_x_at) / Fold change /veh ARHGAP8 /// PRR5-ARHGAP8 (11727945_x_at) / RFU KRTAP5-7 /// NADSYN1 (11734609_at) / Fold change /veh KRTAP5-7 /// NADSYN1 (11734609_at) / RFU RASL12 (11751679_a_at) / Fold change /veh RASL12 (11751679_a_at) / RFU CDKN2B (11736163_a_at) / Fold change /veh CDKN2B (11736163_a_at) / RFU PRF1 (11729649_at) / Fold change /veh PRF1 (11729649_at) / RFU, ZNF638 /// ZNF638-IT1 / Fold change vs veh, ZNF638 /// ZNF638-IT1 / RFU, PANK3 / Fold change vs veh, PANK3 / RFU, SH3YL1 / Fold change vs veh, SH3YL1 / RFU, ZEB2 / Fold change vs veh, ZEB2 / RFU, NRIP1 / Fold change vs veh, NRIP1 / RFU, PTTG1IP / Fold change vs veh, PTTG1IP / RFU, CAPN2 / Fold change vs veh, CAPN2 / RFU, MED14 / Fold change vs veh, MED14 / RFU, SNORA58 / Fold change vs veh, SNORA58 / RFU, C1orf63 / Fold change vs veh, C1orf63 / RFU, LRRFIP1 / Fold change vs veh, LRRFIP1 / RFU, NDUFAF7 / Fold change vs veh, NDUFAF7 / RFU, SLC12A2 / Fold change vs veh, SLC12A2 / RFU, IBTK / Fold change vs veh, IBTK / RFU, ESF1 / Fold change vs veh, ESF1 / Fold change vs veh, TMEM50B / RFU, TAOK1 / Fold change vs veh, TAOK1 / RFU, ACBD3 / Fold change vs veh, ACBD3 / RFU, TMA16 / Fold change vs veh, TMA16 / RFU, RWDD3 / Fold change vs veh, RWDD3 / RFU, BCAT1 / Fold change vs veh, BCAT1 / RFU, EDEM3 / Fold change vs veh, EDEM3 / RFU, TMEM33 / Fold change vs veh, TMEM33 / RFU, WDR75 / Fold change vs veh, WDR75 / RFU, AHCTF1 / Fold change vs veh, AHCTF1 / RFU, TFRC / Fold change vs veh, TFRC / RFU, ZDHHC17 / Fold change vs veh, ZDHHC17 / RFU, NOM1 / Fold change vs veh, NOM1 / RFU, ARL8B / Fold change vs veh, ARL8B / RFU, ZBTB11 / Fold change vs veh, ZBTB11 / RFU, TAMM41 / Fold change vs veh, TAMM41 / RFU, KIAA1704 /// LOC100996395 / Fold change vs veh, KIAA1704 /// LOC100996395 / RFU, ING1 / Fold change vs veh, ING1 / RFU, TRMT61B / Fold change vs veh, TRMT61B / RFU, FUBP3 / Fold change vs veh, FUBP3 / RFU, TP53 / Fold change vs veh, TP53 / RFU, TNKS2 / Fold change vs veh, TNKS2 / RFU, ZFP14 / Fold change vs veh, ZFP14 / RFU, ACTR2 / Fold change vs veh, ACTR2 / RFU, PPP3R1 / Fold change vs veh, PPP3R1 / RFU, PIK3R1 / Fold change vs veh, PIK3R1 / RFU, HNRNPA1 / Fold change vs veh, HNRNPA1 / RFU, RNF170 / Fold change vs veh, RNF170 / RFU, ZNF28 / Fold change vs veh, ZNF28 / RFU, RNGTT / Fold change vs veh, RNGTT / RFU, OGT / Fold change vs veh, OGT / RFU, BRD1 / Fold change vs veh, BRD1 / RFU, MARS / Fold change vs veh, MARS / RFU, ZNF655 / Fold change vs veh, ZNF655 / RFU, FAHD1 / Fold change vs veh, FAHD1 / RFU, BDP1 / Fold change vs veh, BDP1 / RFU, LRRCC1 / Fold change vs veh, LRRCC1 / RFU, ARID1A / Fold change vs veh, ARID1A / RFU, ZNF146 / Fold change vs veh, ZNF146 / RFU, ZNF330 / Fold change vs veh, ZNF330 / RFU, GPN3 / Fold change vs veh, GPN3 / RFU, C9orf123 / Fold change vs veh, C9orf123 / RFU, N4BP2L2 / Fold change vs veh, N4BP2L2 / RFU, ARFIP1 / Fold change vs veh, ARFIP1 / RFU, FAM179B / Fold change vs veh, FAM179B / RFU, BCL10 / Fold change vs veh, BCL10 / RFU, UHRF1BP1L / Fold change vs veh, UHRF1BP1L / RFU, BET1 / Fold change vs veh, BET1 / RFU, CNOT2 / Fold change vs veh, CNOT2 / RFU, ZNF268 / Fold change vs veh, ZNF268 / Fold change vs veh, ZNF507 / RFU, DGCR2 / Fold change vs veh, DGCR2 / RFU, WDSUB1 / Fold change vs veh, WDSUB1 / Fold change vs veh, HSP90B1 /// MIR3652 / RFU, ADSS / Fold change vs veh, ADSS / RFU, GK / Fold change vs veh, GK / RFU, ZNF148 / Fold change vs veh, ZNF148 / RFU, TAF9 / Fold change vs veh, TAF9 / RFU, SLC1A5 / Fold change vs veh, SLC1A5 / RFU, SLMO2 / Fold change vs veh, SLMO2 / RFU, ABCC4 / Fold change vs veh, ABCC4 / RFU, LOC101060439 /// RAP1B / Fold change vs veh, LOC101060439 /// RAP1B / RFU, RFX7 / Fold change vs veh, RFX7 / RFU, GTPBP10 / Fold change vs veh, GTPBP10 / RFU, CNEP1R1 / Fold change vs veh, CNEP1R1 / RFU, BIVM-ERCC5 /// ERCC5 / Fold change vs veh, BIVM-ERCC5 /// ERCC5 / RFU, ILF3 / Fold change vs veh, ILF3 / RFU 11762660_at / Fold change /veh 11762660_at / RFU VCAN (11757783_s_at) / Fold change /veh VCAN (11757783_s_at) / RFU DDX43 (11728927_at) / Fold change /veh DDX43 (11728927_at) / RFU KRT8 (11758188_x_at) / Fold change /veh KRT8 (11758188_x_at) / RFU NKD1 (11759106_at) / Fold change /veh NKD1 (11759106_at) / RFU SRD5A1 (11742802_a_at) / Fold change /veh SRD5A1 (11742802_a_at) / RFU TPSAB1 /// TPSB2 (11721975_s_at) / Fold change /veh TPSAB1 /// TPSB2 (11721975_s_at) / RFU GSTM3 (11746129_a_at) / Fold change /veh GSTM3 (11746129_a_at) / RFU IL23R (11737362_x_at) / Fold change /veh IL23R (11737362_x_at) / RFU TMEM51 (11727254_a_at) / Fold change /veh TMEM51 (11727254_a_at) / RFU PIWIL2 (11732686_x_at) / Fold change /veh PIWIL2 (11732686_x_at) / RFU ORM1 (11744905_x_at) / Fold change /veh ORM1 (11744905_x_at) / RFU CCDC152 (11743942_at) / Fold change /veh CCDC152 (11743942_at) / RFU ECM1 (11717891_a_at) / Fold change /veh ECM1 (11717891_a_at) / RFU IL23R (11748794_a_at) / Fold change /veh IL23R (11748794_a_at) / RFU TNFAIP8L3 (11732012_x_at) / Fold change /veh TNFAIP8L3 (11732012_x_at) / RFU MBOAT4 (11741988_at) / Fold change /veh MBOAT4 (11741988_at) / RFU 11764193_at / Fold change /veh 11764193_at / RFU TMEM53 (11763286_at) / Fold change /veh TMEM53 (11763286_at) / RFU MAGEB2 (11727129_at) / Fold change /veh MAGEB2 (11727129_at) / RFU TMEM200A (11744735_a_at) / Fold change /veh TMEM200A (11744735_a_at) / RFU CCDC152 (11751479_a_at) / Fold change /veh CCDC152 (11751479_a_at) / RFU FAM211A (11726209_a_at) / Fold change /veh FAM211A (11726209_a_at) / RFU RGS16 (11746705_a_at) / Fold change /veh RGS16 (11746705_a_at) / RFU VCAN (11755009_s_at) / Fold change /veh VCAN (11755009_s_at) / RFU RHOB (11743442_s_at) / Fold change /veh RHOB (11743442_s_at) / RFU RGS16 (11720943_a_at) / Fold change /veh RGS16 (11720943_a_at) / RFU RGS16 (11720944_at) / Fold change /veh RGS16 (11720944_at) / RFU, VPS4B / Fold change vs veh, VPS4B / RFU, CREB1 / Fold change vs veh, CREB1 / RFU, DNAJC13 / Fold change vs veh, DNAJC13 / RFU, GNAQ / Fold change vs veh, GNAQ / RFU, CDK5R1 / Fold change vs veh, CDK5R1 / RFU, ZRANB3 / Fold change vs veh, ZRANB3 / RFU, CUL4A / Fold change vs veh, CUL4A / RFU, CCNY / Fold change vs veh, CCNY / RFU, UFL1 / Fold change vs veh, UFL1 / RFU, COG3 / Fold change vs veh, COG3 / RFU, DIAPH2 / Fold change vs veh, DIAPH2 / RFU, SKA2 / Fold change vs veh, SKA2 / RFU, AFF3 / Fold change vs veh, AFF3 / RFU, LMF1 / Fold change vs veh, LMF1 / RFU, IPO11 / Fold change vs veh, IPO11 / RFU, DFFB / Fold change vs veh, DFFB / RFU, FOXP1 / Fold change vs veh, FOXP1 / RFU, CARD8 / Fold change vs veh, CARD8 / RFU, STRN3 / Fold change vs veh, STRN3 / RFU, ADK / Fold change vs veh, ADK / RFU, RASSF2 / Fold change vs veh, RASSF2 / RFU, WIPF1 / Fold change vs veh, WIPF1 / RFU, LARP1B / Fold change vs veh, LARP1B / RFU, RASA1 / Fold change vs veh, RASA1 / RFU, RB1 / Fold change vs veh, RB1 / RFU, PPFIA1 / Fold change vs veh, PPFIA1 / RFU, MAT2A / Fold change vs veh, MAT2A / RFU, CCT5 / Fold change vs veh, CCT5 / RFU, WDR92 / Fold change vs veh, WDR92 / RFU, CUX1 / Fold change vs veh, CUX1 / RFU, TTC7A / Fold change vs veh, TTC7A / RFU, TMEM135 / Fold change vs veh, TMEM135 / RFU, DEPTOR / Fold change vs veh, DEPTOR / RFU, CPM / Fold change vs veh, CPM / RFU, DNAJB6 / Fold change vs veh, DNAJB6 / RFU, CACNA2D3 / Fold change vs veh, CACNA2D3 / RFU, DTX4 / Fold change vs veh, DTX4 / RFU, TFCP2 / Fold change vs veh, TFCP2 / RFU, GMCL1 /// GMCL1P1 / Fold change vs veh, GMCL1 /// GMCL1P1 / RFU, AEBP2 / Fold change vs veh, AEBP2 / RFU, SNHG1 /// SNORD22 /// SNORD25 /// SNORD26 /// SNORD27 /// SNORD28 /// SNORD29 /// SNORD31 / Fold change vs veh, SNHG1 /// SNORD22 /// SNORD25 /// SNORD26 /// SNORD27 /// SNORD28 /// SNORD29 /// SNORD31 / Fold change (Aza/veh), C12orf56 (ProbeSet 11735607_a_at) / Fold change (ACY-1035/veh), C12orf56 (ProbeSet 11735607_a_at) / Fold change (Aza/veh), FGFR1OP (ProbeSet 11751329_s_at) / Fold change (ACY-1035/veh), FGFR1OP (ProbeSet 11751329_s_at) / Fold change (Aza/veh), VPS36 (ProbeSet 11739960_a_at) / Fold change (ACY-1035/veh), VPS36 (ProbeSet 11739960_a_at) / RFU SYPL1 (11715823_x_at) / Fold change /veh SYPL1 (11715823_x_at) / RFU IGFBP7 (11715501_s_at) / Fold change /veh IGFBP7 (11715501_s_at) / RFU REEP3 (11722064_at) / Fold change /veh REEP3 (11722064_at) / RFU IGLL1 (11728026_x_at) / Fold change /veh IGLL1 (11728026_x_at): dose or concentration left out as unconfirmed
Details: ProbeSet 11717914_a_at; LIST B

`Nc1ncn([C@@H]2O[C@H](CO)[C@@H](O)[C@H]2O)c(=O)n1` [azacitidine] was tested, and the “RFU, BIVM-ERCC5 /// ERCC5” value was 162.65 RFU.
